Measured values reported in US20250352477A1, “FORMULATIONS AND ORAL DOSAGE FORMS OF LIPOPHILIC AGENTS” (CANNBIOREX PHARMA LTD, priority 2022, published 2025).
Where two headings read alike, the source gives them in different places.

Assay: Pharmacokinetic study of LPNF-CBD formulations in freely moving rat model
Format: in vivo
Conditions: CBD 15 mg/kg; for half-life: read-out: Elimination half-life (converted)
Method: For pharmacokinetic analysis of LPNF-CBD powders, male Wistar rats were tested in […] groups: a control group received LPNF-CBD prepared as in EXAMPLE 2 (N=5) with CBD concentration 2 mg/mL, administered by oral gavage; experimental groups received LPNF-CBD Polypore or Neusilin US2 powders dispersed in water (N=4 and N=5, respectively) with LPNF-CBD concentration of 20 mg/ml, administered by oral gavage; control groups received CBD in propylene glycol:ethanol:water (4.5:4.5:1 v/v) with CBD concentration of 3 mg/mL, administered by oral gavage or intravenously (N=5 and N=3, respectively). In all groups, the administered CBD dose was 15 mg/kg. For pharmacokinetic (PK) studies, blood samples (0.35 mL) were taken at 0, 0.3 h, 0.6 h, 1 h, 1.5 h, 2 h, 3 h, 4 h and 6 h time points. Plasma was separated by centrifugation and stored frozen until LCMS analysis.
PK study was conducted in the freely moving rat model (in-vivo) in five groups of animals receiving: (1) CBD in propylene glycol:ethanol:water solution; (2) LPNF-CBD, (3) LPNF-CBD Polypore and (4) LPNF-CBD Neusilin powders dispersed in water; all administered by oral gavage; and (5) CBD in propylene glycol:ethanol:water solution administered IV.

[1] = male, Wistar, in vivo, oral gavage

Work on `C=C(C)[C@@H]1CCC(C)=C[C@H]1c1c(O)cc(CCCCC)cc1O` [CBD, Cannabidiol] yielded a Liner terminal slope (IV) of 0.2 h⁻¹, a half-life (male, Wistar, in vivo, IV) of 4.1 h and an AUC [1] of 158 ng·h/mL. The half-life [1] was 3.2 h and the Liner terminal slope (oral gavage) was 0.2 h⁻¹.
